Drawing on PubChem BioAssay (NCI), this text covers TGI and GI50 for 13 compounds.

Values joined by “and” are separate entries in the source; they are usually repeats but may differ in a detail not shown here. Equal entries are not always repeated.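 Exposure lasted 48 hours, with cells grown in 96-well plates and compounds tested at five concentrations. At the GI50, growth is halved. The concentration for full growth arrest is given as TGI.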 Some results are limits rather than exact numbers.

Among the test systems are M19-MEL melanoma; K-562 leukemia; SNB-78 CNS; HOP-18 NSCLC; KM20L2 colon; MOLT-4 leukemia; DLD-1 colon; LXFL 529 NSCLC; SNB-19 CNS; HS 578T breast; T-47D breast.
What all share (test): NCI-60 cell line screen, 48 h

For the compound `Cc1nc(-c2cccnc2)sc1C(=O)/C=C/c1ccc(Cl)cc1Cl`, the TGI with M19-MEL melanoma, in the test with K-562 leukemia, with SNB-78 CNS, in the test with HOP-18 NSCLC, with KM20L2 colon and in the test with MOLT-4 leukemia was over 100 µM throughout. Besides, in the test on DLD-1 colon, the TGI is over 100 µM.
Turning to `NC(=O)NC(=O)C1CCC(=O)N1S(=O)(=O)c1ccc(Cl)cc1` (stereo unspecified), the TGI in the test with M19-MEL melanoma, in the test with K-562 leukemia, in the test with HOP-18 NSCLC, in the test with LXFL 529 NSCLC, in the test on KM20L2 colon and in the test with MOLT-4 leukemia was over 100 µM throughout. Moreover, the TGI in the test with SNB-19 CNS and in the test with DLD-1 colon was over 100 µM throughout.
On to `CCOC(=O)NC/C=C/CO`, for which the TGI with M19-MEL melanoma, in the test with K-562 leukemia, in the test with SNB-78 CNS, in the test on HOP-18 NSCLC, in the test with LXFL 529 NSCLC and in the test on KM20L2 colon was over 100 µM throughout. In addition, the TGI in the test on MOLT-4 leukemia, in the test with SNB-19 CNS and with DLD-1 colon was over 100 µM each time.
Take `CCCCCCCCCCCCCCCC(=O)NCC(OCC)OCC`: the TGI in the test on M19-MEL melanoma, in the test on SNB-78 CNS, in the test on HOP-18 NSCLC, with LXFL 529 NSCLC, in the test on KM20L2 colon and in the test on SNB-19 CNS was over 100 µM throughout. This compound had a TGI with DLD-1 colon of over 100 µM.
In the case of `CC(=O)OCc1cc2c(s1)C(=O)c1sccc1C2=O`, the TGI in the test on K-562 leukemia is over 100 µM; with SNB-78 CNS it was 28.3 µM; with HOP-18 NSCLC, 0.276 µM; in the test with HS 578T breast, 0.422 µM; in the test on LXFL 529 NSCLC, 1 µM; with KM20L2 colon, 5.49 µM. For the same compound, the TGI in the test with T-47D breast stood at 0.882 µM; in the test with SNB-19 CNS, 0.317 µM; in the test on DLD-1 colon, 0.342 µM.
As for `Nc1nc(N)c(-c2ccccc2)c(C(=O)Nc2nccs2)n1`, the TGI in the test on M19-MEL melanoma, with K-562 leukemia, in the test on SNB-78 CNS, in the test with HOP-18 NSCLC, with LXFL 529 NSCLC and in the test with KM20L2 colon was over 100 µM throughout. For the same compound, the TGI in the test with MOLT-4 leukemia, with SNB-19 CNS and in the test with DLD-1 colon was over 100 µM each time.
As for `O=[N+]([O-])c1cccc(C2=NOC3CCCC23)c1` (stereo unspecified), the TGI in the test on M19-MEL melanoma, in the test with K-562 leukemia, in the test with SNB-78 CNS, with HOP-18 NSCLC, in the test on LXFL 529 NSCLC and with MOLT-4 leukemia was over 100 µM throughout. Besides, the TGI in the test on SNB-19 CNS and in the test on DLD-1 colon was over 100 µM throughout.
Turning to `O=[N+]([O-])C1(CO)COC(CCc2ccccc2)OC1` (stereo unspecified), the TGI in the test with M19-MEL melanoma, in the test with K-562 leukemia, in the test with HOP-18 NSCLC, in the test on LXFL 529 NSCLC, with KM20L2 colon and in the test on MOLT-4 leukemia was over 100 µM throughout. Moreover, the TGI in the test on DLD-1 colon is over 100 µM.
As to `CC(=O)OCC1OC(OC(C)=O)C(NC#N)C(OC(C)=O)C1OC(C)=O` (stereo unspecified), the TGI in the test on M19-MEL melanoma, with K-562 leukemia, in the test on HOP-18 NSCLC, with LXFL 529 NSCLC, with MOLT-4 leukemia and in the test on SNB-19 CNS was over 100 µM throughout. The same compound displayed a TGI in the test with DLD-1 colon of over 100 µM.
`O=C1NC2(CCCCC2)C2=C1CCCCC2`: the TGI in the test on M19-MEL melanoma, in the test with K-562 leukemia, in the test on SNB-78 CNS, in the test on HOP-18 NSCLC, in the test with LXFL 529 NSCLC and in the test with MOLT-4 leukemia was over 100 µM in each case. Also, the TGI with SNB-19 CNS and in the test with DLD-1 colon was over 100 µM in each case.
In the case of `Cc1c(N)nc(C2CC(=O)N2CC(N)C(N)=O)nc1C(=O)NC(C(=O)NC(C)C(O)C(C)C(=O)NC(C(=O)NCCc1nc(-c2nc(C(=O)NCCNCC(C)O)cs2)cs1)C(C)O)C(OC1OC(CO)C(O)C(O)C1OC1OC(CO)C(O)C(OC(N)=O)C1O)c1cnc[nH]1` (stereo unspecified), the TGI with M19-MEL melanoma is over 57.6 µM; in the test on K-562 leukemia, 50 µM and > 100 µM; with SNB-78 CNS it was over 100 µM; with HOP-18 NSCLC, over 100 µM; in the test on HS 578T breast, 50 µM; in the test on LXFL 529 NSCLC, over 100 µM. Besides, the TGI with KM20L2 colon is over 100 µM; with T-47D breast, over 5 µM; in the test with MOLT-4 leukemia, 50 µM and 6.66 µM; with SNB-19 CNS, 50 µM and > 100 µM; in the test with DLD-1 colon it was over 100 µM. For the same compound, the values for the GI50 with K-562 leukemia, in the test with MOLT-4 leukemia and in the test on SNB-19 CNS were 35.9 µM, 4.23 µM and 13.6 µM, respectively.
Consider `Cc1c(C(=O)C/C(=N/NC(=O)CC#N)C(N)=O)[n+](=O)c2ccccc2n1[O-]`, for which the TGI with M19-MEL melanoma was 50.7 µM; in the test with K-562 leukemia, over 100 µM; in the test on SNB-78 CNS, over 100 µM; in the test on HOP-18 NSCLC, over 100 µM; in the test on LXFL 529 NSCLC, over 100 µM; in the test with KM20L2 colon it was over 100 µM. In addition, the TGI with MOLT-4 leukemia, with SNB-19 CNS and with DLD-1 colon was over 100 µM each time.
`CC1=C2[C@@H](c3ccccc3)C3C=CC2(C=C3C(F)(F)F)N(C(=O)NC2CCCCC2)C1=O` (stereo partly specified): the TGI in the test with M19-MEL melanoma, in the test with K-562 leukemia, in the test with SNB-78 CNS, in the test on HOP-18 NSCLC, in the test on LXFL 529 NSCLC and in the test on KM20L2 colon was over 100 µM in each case. Moreover, the TGI in the test on MOLT-4 leukemia, in the test on SNB-19 CNS and with DLD-1 colon was over 100 µM throughout.
